{"source": "patent US10751339B2", "about": "“Substituted aminopyrimidine compounds and methods of use” (SUNSHINE LAKE PHARMA CO., LTD., priority 2018, dated 2020)", "key": {"PI3K (p120γ) (h)": {"biological_target": "PI3K (p120γ) (h) (Homo sapiens (Human), UniProt P48736)", "sequence (P48736 whole entry)": "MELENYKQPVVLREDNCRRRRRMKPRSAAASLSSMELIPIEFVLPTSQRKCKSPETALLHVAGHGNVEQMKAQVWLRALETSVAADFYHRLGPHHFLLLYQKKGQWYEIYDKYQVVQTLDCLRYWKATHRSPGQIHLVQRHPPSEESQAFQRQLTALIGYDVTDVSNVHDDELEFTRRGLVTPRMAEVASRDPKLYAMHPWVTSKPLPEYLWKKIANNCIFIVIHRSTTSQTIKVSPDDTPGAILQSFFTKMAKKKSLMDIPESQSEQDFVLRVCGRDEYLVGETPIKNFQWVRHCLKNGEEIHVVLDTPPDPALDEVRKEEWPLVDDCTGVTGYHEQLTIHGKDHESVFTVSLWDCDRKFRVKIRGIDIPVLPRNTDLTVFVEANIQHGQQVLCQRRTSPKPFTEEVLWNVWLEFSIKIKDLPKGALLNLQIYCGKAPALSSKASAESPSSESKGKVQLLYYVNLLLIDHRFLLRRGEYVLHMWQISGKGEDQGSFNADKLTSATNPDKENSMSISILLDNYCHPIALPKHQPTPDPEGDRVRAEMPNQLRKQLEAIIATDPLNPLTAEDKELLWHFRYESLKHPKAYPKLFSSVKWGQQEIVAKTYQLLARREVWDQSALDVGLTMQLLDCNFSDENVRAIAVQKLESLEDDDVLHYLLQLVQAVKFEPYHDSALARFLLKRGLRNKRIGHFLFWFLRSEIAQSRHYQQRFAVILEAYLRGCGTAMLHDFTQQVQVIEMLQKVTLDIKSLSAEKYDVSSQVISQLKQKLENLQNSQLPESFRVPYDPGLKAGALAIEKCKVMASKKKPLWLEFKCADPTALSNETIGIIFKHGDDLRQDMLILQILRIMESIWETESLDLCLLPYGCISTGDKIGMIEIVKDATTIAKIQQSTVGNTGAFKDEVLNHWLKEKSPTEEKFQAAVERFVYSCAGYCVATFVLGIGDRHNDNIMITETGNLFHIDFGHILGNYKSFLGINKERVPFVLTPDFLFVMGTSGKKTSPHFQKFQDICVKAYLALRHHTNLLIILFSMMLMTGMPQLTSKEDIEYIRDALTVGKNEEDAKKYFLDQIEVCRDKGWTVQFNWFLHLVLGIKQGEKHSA", "assay": "PI3K (p120γ) (h) non-radioactive HTRF kinase assay", "format": "biochemical", "experimental": "PI3K (p120γ) (h) is incubated in assay buffer containing 10 μM phosphatidylinositol-4, 5-bisphosphate and MgATP (concentration as required). The reaction is initiated by the addition of the MgATP mix. After incubation for 30 minutes at room temperature, the reaction is stopped by the addition of stop solution containing EDTA and biotinylated phosphatidylinositol-3,4,5-trisphosphate. Finally, detection buffer is added, which contains europium-labelled anti-GST monoclonal antibody, GST-tagged GRP1 PH domain and streptavidin-allophycocyanin. The plate is then read in timeresolved fluorescence mode and the homogenous time-resolved fluorescence (HTRF) signal is determined according to the formula HTRF=10000×(Em665 nm/Em620 nm).\nThe kinase assays described herein were performed at Millipore UK Ltd, Dundee Technology Park, Dundee DD2 1SW, UK."}, "KARPAS-422": {"test_system": "KARPAS-422", "assay": "Cell proliferation assay (CTG), KARPAS-422", "format": "cell-based", "settings": "Homo sapiens, 72 h", "experimental": "(§1) • 1. Harvest cells during the logarithmic growth period and count cell number using Count-star. • 2. Adjust cell concentrations to […] with respective culture medium. • 3. Add 90 μL cell suspensions to 96-well plates with the final cell density of 1×10^4 cells/well. (cell concentration will be adjusted according to the data base or density optimization assay.) • 4. The next day, prepare 10× solution (Top working concentration: 10 μM of test article in media with 3.16-fold serial dilutions to achieve 9 dose levels). • 5. Dispense 10 μL drug solution of both test article and reference control in each well (duplicate for each drug concentration) of the plate."}, "[1]": {"assay": "Pharmacokinetic profiles in rats", "format": "in vivo, rat", "experimental": "The compounds disclosed herein are assessed in pharmacokinetic studies in mice, rats, dogs or monkeys. The compounds are administered as a water solution, 2% HPMC+1% TWEEN®80 in water solution, 5% DMSO+5% solutol in saline, 4% MC suspension or capsule. For the intravenous administration, the animals are generally given at 1 or 2 mg/kg dose. For the oral (p.o.) dosing, mice and rats are generally given 5 or 10 mg/kg dose, and dogs and monkeys are generally given 10 mg/kg dose. The blood samples (0.3 mL) are drawn at 0.25, 0.5, 1.0, 2.0, 3.0, 4.0, 6.0, 8.0, 12 and 24 h time points or 0.083, 0.25, 0.5, 1.0, 2.0, 4.0, 6.0, 8.0 and 24 h time points and centrifuged at 3,000 or 4000 rpm for 2 to 10 min. The plasma solutions are collected, stored at −20° C. or −70° C. until analyzed by LC/MS/MS as described above."}, "PI3K-γ (RAW264.7)": {"test_system": "PI3K-γ (RAW264.7)", "assay": "p-AKT HTRF assay, PI3K-γ in RAW 264.7 cells stimulated with C5a", "format": "cell-based, murine", "settings": "Mus musculus; RAW264.7 cells, C5a stimulation", "experimental": "Cells were incubated at 37° C. in a 5% CO2 atmosphere overnight. […] Medium was then aspirated and 50 μL/well of lysis buffer was added. Plates were shaked for 45 minutes at room temperature and then 16 ul/well of lysate was transferred to 384-well plate. 4 ul/well of premixed antibody was added to the wells. The plate was centrifuged at 1000 rpm at RT for 1 minute and then incubated for 4 hours at 22° C., and Phospho-AKT (ser473) Kit was used for detection."}, "CCRF-SB": {"test_system": "CCRF-SB", "assay": "Cell proliferation assay (CTG), CCRF-SB", "format": "cell-based", "settings": "Homo sapiens, 72 h", "experimental": "as §1"}, "hERG channels": {"biological_target": "hERG channels (Homo sapiens (Human), UniProt Q12809)", "sequence (Q12809 whole entry)": "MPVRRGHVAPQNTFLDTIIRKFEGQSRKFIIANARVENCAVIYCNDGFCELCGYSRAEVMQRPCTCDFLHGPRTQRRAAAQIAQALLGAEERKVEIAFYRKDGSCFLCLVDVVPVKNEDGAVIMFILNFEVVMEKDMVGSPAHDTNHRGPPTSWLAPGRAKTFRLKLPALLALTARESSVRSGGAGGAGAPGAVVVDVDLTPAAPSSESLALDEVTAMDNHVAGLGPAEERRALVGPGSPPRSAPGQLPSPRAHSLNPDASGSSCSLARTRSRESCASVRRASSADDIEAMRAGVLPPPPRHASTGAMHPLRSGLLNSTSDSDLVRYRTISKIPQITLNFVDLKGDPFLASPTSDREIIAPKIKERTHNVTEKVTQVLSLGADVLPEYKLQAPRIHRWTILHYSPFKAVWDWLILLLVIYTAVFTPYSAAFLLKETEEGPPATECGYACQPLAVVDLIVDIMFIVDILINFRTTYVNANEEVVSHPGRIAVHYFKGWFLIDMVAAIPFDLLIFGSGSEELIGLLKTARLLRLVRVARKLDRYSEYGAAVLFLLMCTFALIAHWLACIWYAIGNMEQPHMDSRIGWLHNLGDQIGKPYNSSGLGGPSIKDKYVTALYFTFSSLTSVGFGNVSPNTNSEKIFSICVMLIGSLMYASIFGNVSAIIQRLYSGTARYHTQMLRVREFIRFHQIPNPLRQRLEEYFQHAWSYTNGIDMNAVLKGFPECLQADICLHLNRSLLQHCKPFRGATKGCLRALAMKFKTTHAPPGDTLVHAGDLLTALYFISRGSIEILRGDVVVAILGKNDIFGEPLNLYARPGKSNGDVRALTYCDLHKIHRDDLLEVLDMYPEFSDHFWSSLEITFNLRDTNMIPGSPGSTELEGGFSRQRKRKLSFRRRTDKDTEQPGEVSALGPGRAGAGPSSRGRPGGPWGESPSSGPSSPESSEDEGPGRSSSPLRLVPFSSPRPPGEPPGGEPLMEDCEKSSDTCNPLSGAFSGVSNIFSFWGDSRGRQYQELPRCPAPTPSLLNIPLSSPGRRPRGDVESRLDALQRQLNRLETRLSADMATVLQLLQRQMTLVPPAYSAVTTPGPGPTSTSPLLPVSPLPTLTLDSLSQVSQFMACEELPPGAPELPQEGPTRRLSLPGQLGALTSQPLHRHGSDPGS", "assay": "hERG assay, manual patch-clamp in HEK-293 cells", "format": "cell-based", "source_text": "Voltage clamp protocol: Computer software was used to set voltage clamp protocols. In whole-cell model, cells were held at −80 mV, first depolarized to −50 mV for 80 ms, and then depolarized to +20 mV for 4800 ms to activate the hERG channels. After that the cells were repolarized to −50 mV for 5000 ms to elicit the characteristic tail currents. Finally the cells were held at −80 mV again. The peak values of tail currents were sampled for analysis.\nManual patch-clamp protocol: The manual patch-clamp system was used to record the hERG currents in human embryonic kidney (HEK-293) cells. The cells were harvested and transferred to the recording charmer on the stage of an inverted microscope and perfused consistently with extracellular solution. The volume of the recording chamber was about 1 mL. The extracellular solution in the chamber was completely exchanged within 1 min at a perfusion rate about 1 mL/min. Patch micropipettes were pulled with micropipette puller. Pipettes were moved to the cells by Micromanipulator and a slight positive pressure was used to clear the surface before seal formation. A high-resistance seal between the surface of the plasma membrane and the tip of pipettes were achieved by a gentle suck. […]\nData was presented as mean±S.E.M. The effects of test article were normalized with the peak currents recorded in vehicle control. […]"}, "[2]": {"assay": "Compound stability in rat liver microsomes", "format": "in vitro ADME", "settings": "pH 7.4", "procedure,_shortened": "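Compounds (5 μM, 0.05% DMSO) incubated in duplicate with liver microsomes (0.5 mg protein/mL) and 1.0 mM NADPH in 100 mM phosphate buffer pH 7.4 at 37 °C, sampled 0–60 min. Remaining compound measured by LC/MS/MS, expressed as percent of zero-time control; denatured-microsome and dextromethorphan controls included.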"}}, "data": [{"smiles": "Cc1noc(-c2c(N)ncnc2N[C@@H](C)c2nc3cccc(C#CCO)c3c(=O)n2-c2ccccc2)n1", "note": "[Example 34, (S)-2-(1-((6-amino-5-(3-methyl-1,2,4-oxadiazol-5-yl)pyrimidin-4-yl)amino)ethyl)-5-(3-hydroxyprop-1-yn-1-yl)-3-phenylquinazolin-4(3H)-one]", "values": [{"measurement": "IC50", "setting": "PI3K (p120γ) (h)", "result": 192, "unit": "nM"}, {"measurement": "IC50", "setting": "KARPAS-422", "result": 310, "unit": "nM"}, {"measurement": "clearance", "setting": "[1]; iv dosing 1 mg/kg", "result": 25, "unit": "mL/min/kg"}, {"measurement": "AUC(0-t)", "setting": "[1]; rat, plasma, iv dosing 1 mg/kg", "result": 671, "unit": "ng·h/mL"}, {"measurement": "half-life", "setting": "[1]; rat, plasma, iv dosing 1 mg/kg", "result": 0.91, "unit": "h"}, {"measurement": "Vd", "setting": "[1]; rat, plasma, iv dosing 1 mg/kg, read-out: Vss", "result": 1.68, "unit": "L/kg"}, {"measurement": "bioavailability", "setting": "[1]; rat, plasma, oral bioavailability", "result": 56.8, "unit": "%"}, {"measurement": "IC50", "setting": "PI3K-γ (RAW264.7)", "result": 128, "unit": "nM"}, {"measurement": "IC50", "setting": "CCRF-SB", "result": 318, "unit": "nM"}, {"measurement": "IC50", "setting": "hERG channels", "result": 15300, "unit": "nM"}, {"measurement": "CLint scaled at 5 μM", "setting": "[2]; liver microsomes, in vivo CLint extrapolated from rat liver microsome incubation", "result": 31, "unit": "mL/min/kg"}, {"measurement": "half-life at 5 μM", "setting": "[2]; rat liver microsomes 0.5 mg protein/mL, compound 5 μM, NADPH, 37° C., read-out: Rat T1/2", "result": 1.34, "unit": "h"}]}]}
